# “And” between values parts separate entries of the source, which are not always exact repeats. Equal values may be shown once.
# Experiments:
# [1] = target: T1, BRD4 BD2 (Homo sapiens, UniProt O60885); experiment: NanoBRET bromodomain assay, NanoLuc-BRD4-BD2 in HEK293 cells; assay type: binding; conditions: nanoBRET assay, given as symbol only
# T1 construct: HEK293 cells were transfected using NanoLuc-BRD4-BD1 or NanoLuc-BRD4-BD2 fusion vectors
# Description: Plates were then incubated at 37° C.+5% CO2 incubator for 2 hours.
# Fold Selectivity Calculated (IC50 BD1/IC50 BD2).
# [2] = tested on: imiquimod-induced psoriasis; experiment: Imiquimod-induced psoriasis model; assay type: in vivo, mice; set-up: Spleen Weight / Spleen Weight Ratio: unit not given here; conditions: for PASI Scores: IMI + Deucravacitinib 3 mg/kg; for Mean scores of the presence of erythema on the skin of animals at the area of induction of psoriasis / Mean scores of the presence of induration on the skin of animals at the area of induction of psoriasis / Mean scores of the presence of peeling on the skin of animals at the area of induction of psoriasis: mean ± SEM
# Source text: Imiquimod-induced psoriasis is a model of psoriasis in mice that induces psoriasis-like dermatitis. The pathology closes resembles human plaque-type psoriasis and is a valuable tool for testing new therapies against psoriasis. […] Compound A was formulated in a 5% DMSO/40% PEG-400/55% (0.9% NaCl w/v water) solution (Table 2F). Experimental groups for the study are outlined in Table 4. Prior to study initiation, the backs of all animals in the study were depilated to allow for induction of psoriasis and monitoring of disease progression.
# Once assigned to experimental groups, on Day 1 and continuing through Day 14, topical imiquimod (IMI; Aldara™ containing 5% Imiquimod) was administered to the dorsal depilated animals, and animals in group 1 received topical administration of Excipial® hydrocream (65 mg). […] Clobetasol was applied topically for animals in group 11.
# Body weights were recorded three times a week from Day 1 to Day 8, and daily from Day 8 until the study end at Day 15. At termination on D15 the spleen weight ratio was determined. Disease severity was assessed using the psoriasis area severity index (PASI) daily from Day 8 until study completion on Day 15. The PASI score was calculated based on three parameters (presence of erythema, induration of the skin, and peeling of the skin at the area of induction) on a scale of 0 to 4 (0=no more or absence, 1=low, 2=moderate, 3=high, 4=severe). The PASI score for each animal was calculated as the sum of the score of each parameter measured. The score of the use of enrichment (SUE) was also assessed daily from Day 8 to Day 15. At study completion on Day 15, animal behavior was evaluated using an open field to assess distance travelled, number scratching, and licking and rearing performed in 10 minutes. Upon study termination animals were sacrificed, the spleen was excised and weighed, and blood samples were collected. Serum was isolated from the blood sample for cytokine and other biomarker analysis. IL-1B, IL-6, IL-17, and TNF-α assayed using simple plex technique on an ELLA automated immunoassay system. IL-22 and IL-23 were assayed by ELISA.
# The imiquimod-induced model of psoriasis was used to assess the efficacy of Compound A in treating psoriasis. […] Treatment started on Day 8 after induction so reference to day 1 of treatment is to Day 8 and day 7 of treatment is to Day 14.
# [3] = IMI-psoriasis model, behavioral evaluation D15, 3 mg/kg, individual animals
# [4] = IMI-psoriasis model, behavioral evaluation, 3 mg/kg, individual animals
# [5] = IMI-psoriasis model, mice, 3 mg/kg, individual animals
# [6] = IMI + 3 mg/kg, D8 (before start of treatment)
compound,measurement,setting,value
"CSCCn1cc(-c2ccccc2)c(-c2cn(C)c(=O)c3[nH]c(-c4cnn(C(F)(F)F)c4)cc23)cc1=O [Compound C, 6-methyl-4-(1-(2-(methylthio)ethyl)-2-oxo-5-phenyl-1,2-dihydropyridin-4-yl)-2-(1-(trifluoromethyl)-1H-pyrazol-4-yl)-1,6-dihydro-7H-pyrrolo[2,3-c]pyridin-7-one]",Selectivity (BD1/BD2),[1]; higher number denotes higher selectivity,>>>>
same,BD2,[1]; lower number denotes higher potency,<
Deucravacitinib [reference compound],symptoms by day 15 (representative images),[2]; 3 mg/kg,nearly entirely symptom free
same,PASI-90 (change in PASI score ≥90%) by day 7 of treatment,[2]; 3 mg/kg IP once daily,surpassed PASI-90
same,Body Weight D1,"[2]; IMI + 3 mg/kg, Day 1 (before treatment start on Day 8), individual animals, 3 mg/kg, in g (unit assumed)",18.26 and 17.37 and 16.82 and 17.07 and 16.32 and 18.04 and 16.47 and 17.58
same,Body Weight D3,"[2]; IMI + 3 mg/kg, Day 3 (before treatment start on Day 8), individual animals, 3 mg/kg, in g (unit assumed)",16.20 and 16.31 and 14.76 and 15.24 and 15.52 and 15.99 and 14.97 and 15.55
same,Body Weight D5,"[2]; IMI + 3 mg/kg, Day 5 (before treatment start on Day 8), individual animals, 3 mg/kg, in g (unit assumed)",18.16 and 16.94 and 15.74 and 15.23 and 15.99 and 17.09 and 14.94 and 16.50
same,Body Weight D7,"[2]; IMI + 3 mg/kg, Day 7 (before treatment start on Day 8), individual animals, 3 mg/kg, in g (unit assumed)",17.33 and 17.08 and 15.79 and 15.48 and 16.18 and 17.55 and 15.22 and 16.65
same,Body Weight D8,"[2]; IMI + 3 mg/kg, Day 8 (first day of treatment), individual animals, 3 mg/kg, in g (unit assumed)",17.09 and 17.16 and 15.63 and 15.50 and 15.52 and 17.05 and 14.52 and 15.81
same,Body Weight D9,"[2]; IMI + 3 mg/kg, Day 9, individual animals, 3 mg/kg, in g (unit assumed)",16.60 and 16.54 and 15.63 and 15.57 and 16.01 and 16.79 and 14.75 and 13.93
same,Body Weight D10,"[2]; IMI + 3 mg/kg, Day 10, individual animals, 3 mg/kg, in g (unit assumed)",16.71 and 16.43 and 16.08 and 15.84 and 14.94 and 16.16 and 14.20
same,Body Weight D11,"[2]; IMI + 3 mg/kg, Day 11, individual animals, 3 mg/kg, in g (unit assumed)",17.38 and 15.87 and 15.51 and 15.55 and 16.43 and 14.72
same,Body Weight D12,"[2]; IMI + 3 mg/kg, Day 12, individual animals, 3 mg/kg, in g (unit assumed)",17.70 and 15.90 and 15.59 and 15.82 and 17.15 and 15.06
same,Body Weight D13,"[2]; IMI + 3 mg/kg, Day 13, individual animals, 3 mg/kg, in g (unit assumed)",17.75 and 16.24 and 15.77 and 15.95 and 16.97 and 14.52
same,Body Weight D14,"[2]; IMI + 3 mg/kg, Day 14, individual animals, 3 mg/kg, in g (unit assumed)",18.00 and 16.31 and 15.59 and 16.06 and 17.07 and 15.08
same,Body Weight D15,"[2]; IMI + 3 mg/kg, Day 15, individual animals, 3 mg/kg, in g (unit assumed)",18.03 and 16.39 and 16.00 and 16.29 and 17.17 and 15.22
same,MBWC D1-D8,"[2]; IMI + 3 mg/kg, body weight change Day 1 to Day 8 (before treatment), individual animals, 3 mg/kg",−1.17 and −0.21 and −1.19 and −1.57 and −0.80 and −0.99 and −1.95 and −1.77
same,MBWC D8-D15,"[2]; IMI + 3 mg/kg, body weight change Day 8 to Day 15 (treatment period), individual animals, 3 mg/kg",0.94 and 0.76 and 0.50 and 0.77 and 0.12 and 0.70
same,PASI Scores,"[2]; D8 (day treatment started), individual animals",6 (3×) and 7 and 10 and 8 (3×)
same,PASI Scores,"[2]; D9, individual animals",7 (3×) and 6 (4×) and 8
same,PASI Scores,"[2]; D10, individual animals",6 (6×) and 7
same,PASI Scores,"[2]; D11, individual animals",6 (3×) and 5 (2×) and 4
same,PASI Scores,"[2]; D12, individual animals",4 (2×) and 3 (4×)
same,PASI Scores,"[2]; D13, individual animals",2 (3×) and 0 (2×) and 4
same,PASI Scores,"[2]; D14, individual animals",1 (4×) and 0 and 2
same,PASI Scores,"[2]; D15, individual animals",1 (2×) and 0 (4×)
same,Use Enrichment D1,"[2]; IMI-psoriasis model, D1, 3 mg/kg, per cage (two animals)",4.0
same,Use Enrichment D10,"[2]; IMI-psoriasis model, D10, 3 mg/kg, per cage (two animals)",0.0
same,Use Enrichment D14,"[2]; IMI-psoriasis model, D14, 3 mg/kg, per cage (two animals)",3.0 and 3.5 and 2.0
same,Use Enrichment D15,"[2]; IMI-psoriasis model, D15, 3 mg/kg, per cage (two animals)",4.0 and 2.0
same,Number Licking,[2]; [3],1 and 2 (2×) and 7 and 8
same,Number Licking + Scratching,[2]; [3],2 (3×) and 10 and 20
same,Number Scratching,[2]; [3],1 and 0 (2×) and 3 and 12
same,Distance Traveled,[2]; [4],14 m (2×) and 9 m and 19 m and 12 m
same,Number Rearings,[2]; [4],31 and 22 and 58 and 68 and 38
same,Use Enrichment Mean D1-D8,"[2]; IMI-psoriasis model, mean D1-D8, 3 mg/kg, per cage (two animals)",2.50 and 2.00
same,Spleen Weight,[2]; [5],195.00 and 187.27 and 171.30 and 177.57 and 171.11 and 127.21
same,Spleen Weight Ratio,[2]; [5],1081.53 and 1142.59 and 1070.63 and 1090.06 and 996.56 and 835.81
same,Mean scores of the presence of erythema on the skin of animals at the area of induction of psoriasis,[2]; [6],2.1 ± 0.1
same,Mean scores of the presence of induration on the skin of animals at the area of induction of psoriasis,[2]; [6],2.8 ± 0.3
same,Mean scores of the presence of peeling on the skin of animals at the area of induction of psoriasis,[2]; [6],2.5 ± 0.2
same,Mean scores of the presence of erythema on the skin of animals at the area of induction of psoriasis,"[2]; IMI + 3 mg/kg, D9",2.1 ± 0.1
same,Mean scores of the presence of induration on the skin of animals at the area of induction of psoriasis,"[2]; IMI + 3 mg/kg, D9",2.4 ± 0.2
same,Mean scores of the presence of peeling on the skin of animals at the area of induction of psoriasis,"[2]; IMI + 3 mg/kg, D9",2.1 ± 0.1
same,Mean scores of the presence of erythema on the skin of animals at the area of induction of psoriasis,"[2]; IMI + 3 mg/kg, D10",2.3 ± 0.2
same,Mean scores of the presence of induration on the skin of animals at the area of induction of psoriasis,"[2]; IMI + 3 mg/kg, D10",2.0 ± 0.2
same,Mean scores of the presence of peeling on the skin of animals at the area of induction of psoriasis,"[2]; IMI + 3 mg/kg, D10",1.9 ± 0.1
same,Mean scores of the presence of erythema on the skin of animals at the area of induction of psoriasis,"[2]; IMI + 3 mg/kg, D11",1.8 ± 0.4
same,Mean scores of the presence of induration on the skin of animals at the area of induction of psoriasis,"[2]; IMI + 3 mg/kg, D11",1.5 ± 0.2
same,Mean scores of the presence of peeling on the skin of animals at the area of induction of psoriasis,"[2]; IMI + 3 mg/kg, D11",2.0 ± 0.3
same,Mean scores of the presence of erythema on the skin of animals at the area of induction of psoriasis,"[2]; IMI + 3 mg/kg, D12",1.8 ± 0.2
same,Mean scores of the presence of induration on the skin of animals at the area of induction of psoriasis,"[2]; IMI + 3 mg/kg, D12",0.5 ± 0.2
same,Mean scores of the presence of peeling on the skin of animals at the area of induction of psoriasis,"[2]; IMI + 3 mg/kg, D12",1.0 ± 0.0
same,Mean scores of the presence of erythema on the skin of animals at the area of induction of psoriasis,"[2]; IMI + 3 mg/kg, D13",0.8 ± 0.3
same,Mean scores of the presence of induration on the skin of animals at the area of induction of psoriasis,"[2]; IMI + 3 mg/kg, D13",0.0 ± 0.0
same,Mean scores of the presence of peeling on the skin of animals at the area of induction of psoriasis,"[2]; IMI + 3 mg/kg, D13",0.8 ± 0.3
same,Mean scores of the presence of erythema on the skin of animals at the area of induction of psoriasis,"[2]; IMI + 3 mg/kg, D14",0.2 ± 0.2
same,Mean scores of the presence of induration on the skin of animals at the area of induction of psoriasis,"[2]; IMI + 3 mg/kg, D14",0.0 ± 0.0
same,Mean scores of the presence of peeling on the skin of animals at the area of induction of psoriasis,"[2]; IMI + 3 mg/kg, D14",0.8 ± 0.2
same,Mean scores of the presence of erythema on the skin of animals at the area of induction of psoriasis,"[2]; IMI + 3 mg/kg, D15",0.0 ± 0.0
same,Mean scores of the presence of induration on the skin of animals at the area of induction of psoriasis,"[2]; IMI + 3 mg/kg, D15",0.0 ± 0.0
same,Mean scores of the presence of peeling on the skin of animals at the area of induction of psoriasis,"[2]; IMI + 3 mg/kg, D15",0.3 ± 0.2
same,Mean PASI Scores in IMI-Psoriasis Model,"[2]; mice, IMI + 3 mg/kg, D8 (before start of treatment)",7.4 ± 0.5
same,Mean PASI Scores in IMI-Psoriasis Model,"[2]; mice, IMI + 3 mg/kg, D9",6.6 ± 0.3
same,Mean PASI Scores in IMI-Psoriasis Model,"[2]; mice, IMI + 3 mg/kg, D10",6.1 ± 0.1
same,Mean PASI Scores in IMI-Psoriasis Model,"[2]; mice, IMI + 3 mg/kg, D11",5.3 ± 0.3
same,Mean PASI Scores in IMI-Psoriasis Model,"[2]; mice, IMI + 3 mg/kg, D12",3.3 ± 0.2
same,Mean PASI Scores in IMI-Psoriasis Model,"[2]; mice, IMI + 3 mg/kg, D13",1.7 ± 0.6
same,Mean PASI Scores in IMI-Psoriasis Model,"[2]; mice, IMI + 3 mg/kg, D14",1.0 ± 0.3
same,Mean PASI Scores in IMI-Psoriasis Model,"[2]; mice, IMI + 3 mg/kg, D15",0.3 ± 0.2
same,use of enrichment (nesting),[2]; relative to vehicle-treated psoriasis animals,about half that seen with Compound A

# — patent US20260217701A1, “SELECTIVE BET INHIBITORS AND USES THEREOF” (Tay Therapeutics Limited, priority 2022, published 2026)
